Columns and labels:
[1] = target: T1, rabbit NHE3 with 76 C-terminal amino acids removed (Oryctolagus cuniculus, UniProt P26432); test: Rabbit NHE3 with the 76 C-terminal amino acids removed; type: cell-based
T1 construct: expressed in transfected cells
Excerpt: This NHE3 inhibiting activity of squalamine has been mapped to the 76 C-terminal amino acids on the NHE3 molecule. […] Thus, the 76 C-terminal amino acids of NHE3 are the site of inhibition by squalamine.

[2] = tested on: brush border membrane vesicle (BBMV) NHE; test: Brush border membrane vesicle (BBMV) NHE inhibition; type: biochemical; settings: tissue pretreated; 30 minutes exposure
[3] = Pharmacokinetic study, half-life; settings: in vivo
Method: A pharmacokinetic study of squalamine was performed to ascertain the residence time of squalamine in the body. FIGS. 6a to 6c illustrate the test results where squalamine was administered subcutaneously (50 mg/kg, FIG. 6a), intraperitoneally (dose 240 μg; 10 mg/kg, FIG. 6b), and intravenously (10 mg/kg, FIG. 6c).

[4] = tested on: 9L and C6 rat glioma cells, human H80 glioma cells, VX2 rabbit carcinoma cells; test: Proliferation of tumor cell lines; type: cell-based
Method: In conducting this in vitro analysis, the following cell lines were tested: (a) bovine retinal endothelial cells; (b) 9L and C6 rat glioma cells; (c) human H80 glioma cells; and (d) VX2 rabbit carcinoma cells (the same type as the tumors implanted in the rabbit corneal micropocket assay test described above). The endothelial mitogen which was used in this analysis was VEGF at a concentration of 20 ng/ml.
The cells were allowed to attach overnight to tissue culture plates containing an optimized growth media. Following attachment, the cells were exposed to solvent only or 5 to increasing concentrations of squalamine (0, 10, 20, 30, 60, and 90 μg squalamine/ml). Cell growth was counted daily for three days using a Coulter Counter. A total of 10,000 cells per well were plated and each experimental concentration was tested in quadruplicate. The results were then averaged. The bovine retinal endothelial cells were grown and treated in an identical manner to the other cell lines, except that the growth of these cells was measured after the addition of 20 ng/ml of human recombinant VEGF to the cells prior to the squalamine treatment.
Percentage endothelial cell growth inhibition (%I) was determined by the following equation: [formula]

[5] = tested on: human brain capillary endothelial cells; test: Growth factor stimulated growth of human brain capillary endothelial cells; type: cell-based
Excerpt: Thus, as the tumor puts out a variety of different growth factors, squalamine has an inhibitory effect on several.

[6] = tested on: 9L gliosarcoma tumors (9L glioma); test: 9L glioma flank study; type: in vivo, Fisher 344 rats; settings: Day 25 or 26 after implantation, treatment from Day 5 per Table 4
Method: Four groups of rats (twenty total Fisher 344 rats, 200 g) were given s.q. transplants of 1 mm3 9L gliosarcoma tumors (9L glioma) on Day 0. The tumors were implanted in the rat flanks to avoid complications relating to adequate brain levels of squalamine. Randomization and treatment began on Day 5 according to the following scheme:
On Day 25 or 26 after tumor implantation, the tumor size was measured directly. The tumor size (i.e., its volume “V”) was estimated based on volumetric calculations determined from the measured length (“L”), width (“W”), and height (“H”) of the tumor (Vtumor spheroid˜0.5 ×L×W×H). The tumor volumes shown in Table 5 represent the mean tumor volumes for each treatment group for those animals that survived to the end of the experiment.

[7] = tested on: murine Lewis lung adenocarcinoma; test: Lung metastases of subcutaneous Lewis lung carcinoma; type: in vivo, C57BL/6 mice; settings: day 20; squalamine 20 mg/kg/day s.c.; cyclophosphamide 125 mg/kg i.p. days 7, 9, 11; cisplatin 10 mg/kg i.p. day 7
Method: The murine Lewis lung adenocarcinoma was implanted subcutaneously in the hind-leg of male C57BL/6 mice and allowed to grow for one week. Groups of mice were then left untreated or treated with either squalamine (20 mg/kg/day, s.c.), cyclophosphamide (125 mg/kg, i.p. on days 7, 9 and 11), cisplatin (10 mg/kg, i.p. on day 7), the combination of squalamine and cyclophosphamide, or the combination of squalamine and cisplatin. On day 20, the animals were sacrificed, and the mean number of lung metastases were determined for each group.

[8] = tested on: Calu-6; test: Calu-6 lung tumor xenograft with carboplatin; type: in vivo, nude BALBc mice; settings: carboplatin 60 mg/kg i.p. single dose, squalamine 20 mg/kg once daily for 5 days
Method: About 5×10^6 cells from each of two human lung tumor lines, H460 (a rapidly proliferating large cell carcinoma cell line, ATCC HTB-177) and Calu-6 (an anaplastic carcinoma, ATCC HTB-56), were inoculated subcutaneously in the right foreleg of nude BALBc mice. Once tumors were visible (3-5 days) with a mean volume of approximately 50-80 mm^3, mice were treated intraperitoneally with 60 mg/kg carboplatin (single dose) or 20 mg/kg/squalamine (once daily for 5 days) or a combination of carboplatin and squalamine. There were 8 mice per group. Tumor growth inhibition was scored by quantifying the size of tumors once control tumors reached a size of 1.0 gram and determining the ratio of mean treated tumor size to mean control tumor size (T/C). Tumor growth inhibition was then scored as 100% x [1-(T/C)]. A separate antitumor activity variable, tumor growth delay, was scored for the tumors by determining the length of time it required for the mean tumor size in a treatment group to reach a size of 500 mm^3 (B. A. Teicher et al., Anticancer Research 18, 2567-2574 (1998)). The tumor growth inhibition seen with carboplatin plus squalamine was greater than that seen with carboplatin or squalamine alone. The relative inactivity of squalamine as a single agent by this assay endpoint supports the idea that squalamine is synergistic with carboplatin in the inhibition of these two human lung tumor xenografts. Similarly, it was determined that squalamine enhanced the tumor growth delay caused by carboplatin by an enhancement factor of >2.3 (Table 7).

T1 sequence (P26432 30-756): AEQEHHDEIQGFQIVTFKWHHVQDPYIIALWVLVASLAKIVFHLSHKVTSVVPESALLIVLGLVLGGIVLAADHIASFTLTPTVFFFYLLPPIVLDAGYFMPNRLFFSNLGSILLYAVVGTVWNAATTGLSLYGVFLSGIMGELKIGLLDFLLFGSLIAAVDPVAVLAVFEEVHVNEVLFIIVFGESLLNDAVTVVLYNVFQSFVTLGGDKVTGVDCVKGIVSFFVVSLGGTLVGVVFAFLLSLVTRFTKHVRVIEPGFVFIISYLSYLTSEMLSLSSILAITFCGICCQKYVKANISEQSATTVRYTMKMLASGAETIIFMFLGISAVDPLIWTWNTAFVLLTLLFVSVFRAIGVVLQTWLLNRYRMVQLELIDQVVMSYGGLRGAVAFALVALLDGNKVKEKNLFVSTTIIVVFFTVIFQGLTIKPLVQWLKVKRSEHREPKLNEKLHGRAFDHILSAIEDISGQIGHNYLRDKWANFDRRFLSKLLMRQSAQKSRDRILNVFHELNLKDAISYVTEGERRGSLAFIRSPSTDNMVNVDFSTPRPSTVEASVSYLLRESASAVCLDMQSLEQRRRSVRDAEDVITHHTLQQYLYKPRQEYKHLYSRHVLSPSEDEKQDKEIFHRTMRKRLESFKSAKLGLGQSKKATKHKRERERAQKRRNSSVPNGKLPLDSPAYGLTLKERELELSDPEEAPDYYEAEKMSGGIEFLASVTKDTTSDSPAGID

SMILES: CC(C)[C@@H](CC[C@@H](C)[C@H]1CC[C@H]2[C@@H]3[C@H](O)C[C@H]4C[C@@H](NCCCNCCCCN)CC[C@]4(C)[C@H]3CC[C@]12C)OS(=O)(=O)O [Squalamine, squalamine]
- effect on activity of NHE3 lacking the 76 C-terminal amino acids [1]: virtually no effect
- inhibition of BBMV NHE [2]: 51%
- half-life ([3]; ip, intraperitoneally, dose 240 μg, 10 mg/kg): 2.87 h
- half-life ([3]; iv, intravenously, 10 mg/kg): 0.583 h
- half-life ([3]; sc, subcutaneously, 50 mg/kg): 5.6 h
- growth of H80, C6 and VX2 cell lines as percentage of control ([4]; 30 μg/ml, 1, 2 and 3 days (FIG. 9)): not dramatically affected
- cell proliferation by all tumor lines ([4]; 24 and 48 hours, up to 30 μg/ml): statistically unaffected
- growth stimulation induced by b-FGF, PDGFbb, scatter factor, conditioned tumor media, human brain cyst fluid [5]: interfere with growth stimulation
- % Reduction (based on control volume) [6]: 81.7%
- Mean Tumor volume [6]: 3,347 mm^3
- % Reduction (based on control volume) ([6]; listed as squalamine): 81.7%
- mean number of lung metastases [7]: reduced the number of metastases
- Tumor Growth Inhibition (T/C) [8]: 8%
